We go through four compounds from US10273333B2, “Substituted polyesters by thiol-ene modification: rapid diversification for therapeutic protein stabilization” (THE REGENTS OF THE UNIVERSITY OF CALIFORNIA, priority 2014, dated 2019).

Data set [1] concerns the target T1, granulocyte colony-stimulating factor (G-CSF) (Homo sapiens, UniProt P09919).
T1 construct: host or cells: E. coli
T1 sequence (P09919 31-204 isoform P09919-2 limits assumed): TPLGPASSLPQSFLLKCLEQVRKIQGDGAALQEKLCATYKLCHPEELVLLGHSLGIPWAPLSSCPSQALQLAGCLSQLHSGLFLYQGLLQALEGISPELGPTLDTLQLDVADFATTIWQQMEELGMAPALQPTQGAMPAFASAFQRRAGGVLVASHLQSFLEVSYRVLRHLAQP
Nature of the data set: G-CSF stabilization studies; G-CSF bioactivity by NFS-60 cell proliferation (CellTiter-Blue). In kind it is cell-based. Conditions: 60° C. for 30 minutes; small molecules at the concentration of stabilizing units in pCL-zwitterion80, Tween 80 and polymers at 100 weight equivalents; FIG. 74. On the procedure:
G-CSF Stabilization Studies: G-CSF samples (25 μL) were prepared in 10 mM acetate buffer, pH 4.0 at 1 μg/mL with 100 equivalents polymer additive by weight. Samples were stored at 4° C. for 90 minutes or 60° C. for 30 minutes and then were diluted with cold RPMI-1640 medium+10% FBS (735 μL). The samples were then further diluted with RPMI-1640+10% FBS to a final concentration of 1 ng/mL. G-CSF bioactivity was then assayed in a NFS-60 mouse myelogenous leukemia lymphoblast cell line. NFS-60 cells were cultured in RPMI-1640 medium supplemented with 10% FBS and 2 ng/mL interleukin-3 (IL-3) at 37° C./5% CO2. NFS-60 cells were passaged at least three times before used in proliferation experiments. Prior to treating NFS-60 cells with G-CSF samples, NFS-60 cells were collected and resuspended in RPMI-1640 with 10% FBS (without additional growth factors). Cells were plated in the internal wells of a 96 well plate at a density of 20,000 cells per well in 50 μL of medium. G-CSF solution (50 μL) was then added to provide a final concentration of 0.5 ng/mL and total well volume of 100 μL. Following 48 h incubation at 37° C./5% CO2, CellTiter-Blue viability assay was performed to measure cell proliferation. All experimental groups were normalized to the control of the control of media alone without G-CSF addition. All p values were calculated using the independent Student's t test assuming unequal variances.
Next the ability of the polymer to protect protein activity against environmental stressors was assessed. The therapeutic protein granulocyte colony-stimulating factor (G-CSF) was selected to compare excipient efficacy due to its clinical importance. […] G-CSF is highly unstable at physiological pH and is therefore stored at pH 4.0; still at this pH the protein readily degrades upon storage or subjection to heat (Krishnan et al., 2002). […] Protein activity was determined by measuring cell proliferation in murine myeloid leukemia NFS-60 cells, which is enhanced in the presence of GCSF, and compared to the proliferation of freshly diluted protein (Shirafuji et al., 1989).

For the next data set, the system named is β-galactosidase (β-Gal). The settings on record: three 12-hour desiccation (lyophilization) cycles; excipient; FIG. 12b.
The target in another data set is lysozyme (Gallus gallus, UniProt P00698). Nature of the data set: Lysozyme stabilization against heat stress (90° C., 20 minutes), EnzChek lysozyme activity assay. It is filed as biochemical. The settings on record: heated 90° C. for 20 minutes; 5 to 25 wt eq. excipient; FIG. 12a. The method, then:
The ability of these biodegradable trehalose polymers to stabilize proteins was confirmed through heat and lyophilization stress assays. […] Therefore, these proteins were also selected to test the biodegradable trehalose polymers. First, lysozyme was stressed by heating to 90° C. for 20 minutes.
[…] Samples were further diluted to a concentration of 0.021 mg/mL (1 kU/mL) and […] aliquots were prepared in 0.5 mL LoBind Eppendorf tubes. Each aliquot was heated to 90° C. for 20 minutes at 500 rpm, then cooled to 4° C. and centrifuged for 1 minute at 10,000 rpm. Samples were stored at 4° C. until activity was evaluated all together using the EnzChek® lysozyme activity assay.
Aliquots containing 20 μL of lysozyme-glycopolymer solution were diluted to 100 μL with PBS pH 7.4. 50 μL of the resulting solution was removed and incubated with 50 μL of Micrococcus luteus labeled with FITC (1 mg/mL) at 37° C. for 30 minutes in a 96-well plate. The resulting fluorescence was measured (abs 480 nm/em 530 nm) and quantified relative to a known concentration curve. Statistics to determine significance were calculated using the Students t test; % confidence as +/−=t(standard deviation)/(number of trials)½ with p<1−% confidence/100.

Data set [2] in a line: Differential scanning calorimetry (DSC): melting and crystallization enthalpy of water. In kind it is physicochemical. Conditions: 1 mol % of the stabilizing unit; for ΔHc (change in crystallization enthalpy of water) / ΔHm (change in melting enthalpy of water): relative to water; for Hc (crystallization enthalpy of water) / Hm (melting enthalpy of water): second heat/cool run, in J/g (unit assumed). The method, then: Solutions of trehalose, betaine, pCL-trehalose80, and pCL-zwitterion80 were made at 1 mol % of the stabilizing unit (trehalose or betaine) and analyzed by DSC (TA Instruments Q2000). Runs were carried out using two heat/cool cycles from −40° C. to 40° C. at […] and values were taken from the second run.

Sequence of lysozyme (P00698 19-147): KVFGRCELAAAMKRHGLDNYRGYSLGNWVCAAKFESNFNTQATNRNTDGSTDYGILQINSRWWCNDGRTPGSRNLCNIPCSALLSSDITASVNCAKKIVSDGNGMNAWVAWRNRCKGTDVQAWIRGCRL
Method for β-galactosidase (β-Gal): The stabilization of β-Gal against lyophilization stress was also measured. […] The activity of β-Gal was determined by reaction with ortho-nitrophenol galactose (ONPG). When incubated with β-Gal, release of the yellow-colored o-nitrophenol from ONPG can be monitored at 405 nm.
The activity of β-Gal was determined by reaction with ortho-nitrophenol galactose (ONPG). When incubated with β-Gal, release of the yellow-colored o-nitrophenol from ONPG can be monitored at 405 nm.
Lyophilization studies with β-galactosidase were carried out as previously described; 8-Gal was subjected to three 12 hour lyophliization cycles before dilution. Activity was assayed by monitoring the hydrolysis of o-nitrophenol galactose (ONPG) at 405 nm.

On to `CCCCCCCC/C=C\CCCCCCCC(=O)OCCOCC(OCCO)C1OCC(OCCO)C1OCCO` (stereo not shown) [Tween 80, polysorbate 80], for which, in data set [1], the “G-CSF activity / cell proliferation, comparison with small-molecule excipients” value (“G-CSF activity / cell proliferation” below) is reported as “maintained high protein activity”.

In the case of `OC[C@H]1O[C@@](CO)(O[C@H]2O[C@H](CO)[C@@H](O)[C@H](O)[C@H]2O)[C@@H](O)[C@@H]1O` [sucrose], in data set [1], the “G-CSF activity / cell proliferation” value is on record as “little stabilizing effect”.

For the compound `OC[C@H]1O[C@H](O[C@H]2O[C@H](CO)[C@@H](O)[C@H](O)[C@H]2O)[C@H](O)[C@@H](O)[C@@H]1O` [trehalose], the “β-Gal activity maintained (of native activity)” value in the data set on β-galactosidase (β-Gal) is listed as “up to 67%”. Also, at lysozyme, the “lysozyme activity retained (of native activity)” value is reported as “not significantly different from the negative control”. Moreover, in data set [2], the “ΔHc (change in crystallization enthalpy of water)” value was found to be 22.3, the “ΔHm (change in melting enthalpy of water)” value is −47.4, the “Hc (crystallization enthalpy of water)” value is on record as −229.9 and the “Hm (melting enthalpy of water)” value was determined as 249.1.

As to `C[N+](C)(C)CC(=O)O` [betaine], in data set [1], the “G-CSF activity / cell proliferation” value was “little stabilizing effect”. In data set [2], the “ΔHc (change in crystallization enthalpy of water)” value is given as 73.2, the “ΔHm (change in melting enthalpy of water)” value is reported as −98.4, the “Hc (crystallization enthalpy of water)” value is on record as −179 and the “Hm (melting enthalpy of water)” value is on record as 198.1.
